From PMC7083880 (Nature Communications, 2020)
Several values for one entry are separate records, joined by “and”; a condition that tells them apart may be missing. Equal entries are not always repeated.

Columns and labels:
[1] = system: firefly luciferase (Fluc) gene with UAG nonsense codon at position 109 in HeLa cells; test: Firefly luciferase readthrough assay, UAG PTC construct; type: cell-based, human
CTU1 = target: T1, CTU1 (Homo sapiens, UniProt Q7Z7A3); test: UGA readthrough luciferase assay with CTU1 overexpression; type: cell-based;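 on luciferase activity, average: DAP exposure for 24 h before luciferase measurement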;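 on luciferase activity, exp2: DAP exposure for 24 h before luciferase measurement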
T1 construct: host or cells: HeLa
T1 sequence (Q7Z7A3 1-348): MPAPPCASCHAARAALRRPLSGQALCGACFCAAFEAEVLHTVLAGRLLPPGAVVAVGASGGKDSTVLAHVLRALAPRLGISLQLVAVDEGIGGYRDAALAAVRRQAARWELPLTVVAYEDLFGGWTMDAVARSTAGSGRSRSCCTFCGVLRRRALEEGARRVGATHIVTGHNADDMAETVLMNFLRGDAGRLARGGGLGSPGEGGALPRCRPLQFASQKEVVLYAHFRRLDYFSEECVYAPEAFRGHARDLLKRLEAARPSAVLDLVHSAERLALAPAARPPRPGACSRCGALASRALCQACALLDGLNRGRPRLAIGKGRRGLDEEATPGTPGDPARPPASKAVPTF
From the text: Firefly luciferase from HEK293FT cells transfected with the Fluc-int-UGA construct was immunoprecipitated and digested with trypsin. The MS/MS spectrum of the peptide containing the PTC position and the sequence determination are shown. The upper red and blue sequences indicate the amino acids validated, respectively, by detection of Nter and Cter peptide fragments (b and y ion series). Peptide fragments y6 and y7 clearly identify tryptophan (W) at the PTC position. The black peaks correspond to non-attributed mass-to-charge ratio (m/z) values. […] Readthrough efficiency was determined by measuring luciferase activity in HeLa cells co-transfected with the firefly luciferase construct described in Fig. 1b and with increasing amounts of an expression vector for either FTSJ1 or CTU1 (0.5, 1, or 2 µg). The empty expression vector (E.v.) was used as control. […] The experiment was performed twice and the results of both experiments (Exp1 and Exp2) are shown. c Western blot analysis of FTSJ1 and CTU1. d 2′-O-methylation analysis of tRNA^Trp, tRNA^SER, and tRNA^GLN by RiboMethSeq. […] A molecular weight marker is indicated to the left of each gel. p-values (p) were calculated using Student’s t-test. Source data are provided as a Source Data file.
Among the enzymes modifying tRNAs liable to recognize a stop codon by extended wobbling, human FTSJ1 (TRM7 in yeast) exclusively modifies tRNAs involved in UGA readthrough. In addition to other tRNA targets, FTSJ1 methylates the cytosine at position 34 of tRNA^Trp. Inhibition of this modification could increase the capacity of tRNA^Trp to misdecode and recognize the UGA stop codon. […] FTSJ1 and CTU1 overexpression were assessed by western-blot analysis (Fig. 5c).

## Nc1nc(N)c2[nH]cnc2n1 [DAP, 2,6-diaminopurine]
[1]; DAP 3.75µM, average of 2 experiments
  Luciferase activity, UAG PTC: 366.5±43 and 366.5
[1]; DAP 3.75µM, experiment 1
  Luciferase activity, UAG PTC: 336
[1]; DAP 3.75µM, experiment 2
  Luciferase activity, UAG PTC: 397
[1]; DAP 37.5µM, average of 2 experiments
  Luciferase activity, UAG PTC: 451.5±145 and 451.5
[1]; DAP 37.5µM, experiment 1
  Luciferase activity, UAG PTC: 349
[1]; DAP 37.5µM, experiment 2
  Luciferase activity, UAG PTC: 554
CTU1; 0.5µg CTU1, 0.39µM
  luciferase activity, average: 1294.38
  luciferase activity, exp1: 850.5
  luciferase activity, exp1*1,5: 1275.75
  luciferase activity, exp2: 1313
CTU1; 0.5µg CTU1, 0.78µM
  luciferase activity, average: 1925.25
  luciferase activity, exp1: 1235
  luciferase activity, exp1*1,5: 1852.5
  luciferase activity, exp2: 1998
CTU1; 0.5µg CTU1, 1.56µM
  luciferase activity, average: 3744.75
  luciferase activity, exp1: 2474
  luciferase activity, exp1*1,5: 3711
  luciferase activity, exp2: 3778.5
CTU1; 0.5µg CTU1, 6.25µM
  luciferase activity, average: 19050.9
  luciferase activity, exp1: 10689.5
  luciferase activity, exp1*1,5: 16034.2
  luciferase activity, exp2: 22067.5
CTU1; 0.5µg CTU1, 25µM
  luciferase activity, average: 76730.1
  luciferase activity, exp1: 40518.5
  luciferase activity, exp1*1,5: 60777.8
  luciferase activity, exp2: 92682.5
CTU1; 0.5µg CTU1, 100µM
  luciferase activity, average: 153887
  luciferase activity, exp1: 108746
  luciferase activity, exp1*1,5: 163120
  luciferase activity, exp2: 144654
CTU1; 0.5µg CTU1, 300µM
  luciferase activity, average: 196559
  luciferase activity, exp1: 113240
  luciferase activity, exp1*1,5: 169861
  luciferase activity, exp2: 223256
CTU1; 0.5µg CTU1, 600µM
  luciferase activity, average: 155354
  luciferase activity, exp1: 75601
  luciferase activity, exp1*1,5: 113402
  luciferase activity, exp2: 197306
CTU1; 1µg CTU1, 0.39µM
  luciferase activity, average: 1209.75
  luciferase activity, exp1: 816
  luciferase activity, exp1*1,5: 1224
  luciferase activity, exp2: 1195.5
CTU1; 1µg CTU1, 0.78µM
  luciferase activity, average: 1705.88
  luciferase activity, exp1: 1099.5
  luciferase activity, exp1*1,5: 1649.25
  luciferase activity, exp2: 1762.5
CTU1; 1µg CTU1, 1.56µM
  luciferase activity, average: 3430.38
  luciferase activity, exp1: 2700.5
  luciferase activity, exp1*1,5: 4050.75
  luciferase activity, exp2: 2810
CTU1; 1µg CTU1, 6.25µM
  luciferase activity, average: 22021
  luciferase activity, exp1: 11418
  luciferase activity, exp1*1,5: 17127
  luciferase activity, exp2: 26915
CTU1; 1µg CTU1, 25µM
  luciferase activity, average: 66719.5
  luciferase activity, exp1: 39882
  luciferase activity, exp1*1,5: 59823
  luciferase activity, exp2: 73616
CTU1; 1µg CTU1, 100µM
  luciferase activity, average: 131546
  luciferase activity, exp1: 100876
  luciferase activity, exp1*1,5: 151313
  luciferase activity, exp2: 111779
CTU1; 1µg CTU1, 300µM
  luciferase activity, average: 187075
  luciferase activity, exp1: 116534
  luciferase activity, exp1*1,5: 174802
  luciferase activity, exp2: 199348
CTU1; 1µg CTU1, 600µM
  luciferase activity, average: 146715
  luciferase activity, exp1: 78978
  luciferase activity, exp1*1,5: 118467
  luciferase activity, exp2: 174963
CTU1; 2µg CTU1, 0.39µM
  luciferase activity, average: 1088.5
  luciferase activity, exp1: 733
  luciferase activity, exp1*1,5: 1099.5
  luciferase activity, exp2: 1077.5
CTU1; 2µg CTU1, 0.78µM
  luciferase activity, average: 1344.88
  luciferase activity, exp1: 885.5
  luciferase activity, exp1*1,5: 1328.25
  luciferase activity, exp2: 1361.5
CTU1; 2µg CTU1, 1.56µM
  luciferase activity, average: 2818.25
  luciferase activity, exp1: 1937
  luciferase activity, exp1*1,5: 2905.5
  luciferase activity, exp2: 2731
CTU1; 2µg CTU1, 6.25µM
  luciferase activity, average: 9528.62
  luciferase activity, exp1: 6020.5
  luciferase activity, exp1*1,5: 9030.75
  luciferase activity, exp2: 10026.5
CTU1; 2µg CTU1, 25µM
  luciferase activity, average: 42062.1
  luciferase activity, exp1: 22665.5
  luciferase activity, exp1*1,5: 33998.2
  luciferase activity, exp2: 50126
CTU1; 2µg CTU1, 100µM
  luciferase activity, average: 109330
  luciferase activity, exp1: 66277.5
  luciferase activity, exp1*1,5: 99416.2
  luciferase activity, exp2: 119244
CTU1; 2µg CTU1, 300µM
  luciferase activity, average: 143657
  luciferase activity, exp1: 87747.5
  luciferase activity, exp1*1,5: 131621
  luciferase activity, exp2: 155692
CTU1; 2µg CTU1, 600µM
  luciferase activity, average: 121237
  luciferase activity, exp1: 66046
  luciferase activity, exp1*1,5: 99069
  luciferase activity, exp2: 143406
